Results published in US20250109384A1, “A CELLULAR COMPOSITE” (ALCYOMICS LIMITED, priority 2022, published 2025).
Entries after “also recorded” stand apart in the source; their conditions may differ.

B1: HAPLN1: hyaluronan and proteoglycan link protein 1 (SEQ ID NO: 1), added to chondrogenic media at 100 ng/mL (protein, listed as Homo sapiens)
chain: MKSLLLLVLISICWADHLSDNYTLDHDRAIHIQAENGPHLLVEAEQAKVFSHRGGNVTLPCKFYRDPTAFGSGIHKIRIKWTKLTSDYLKEVDVFVSMGYHKKTYGGYQGRVFLKGGSDSDASLVITDLTLEDYGRYKCEVIEGLEDDTVVVALDLQGVVFPYFPRLGRYNLNFHEAQQACLDQDAVIASFDQLYDAWRGGLDWCNAGWLSDGSVQYPITKPREPCGGQNTVPGVRNYGFWDKDKSRYDVFCFTSNFNGRFYYLIHPTKLTYDEAVQACLNDGAQIAKVGQIFAAWKILGYDRCDAGWLADGSVRYPISRPRRRCSPTEAAVRFVGFPDKKHKLYGVYCFRAYN

What was measured:
[1] = system: Y201 models and OA models; assay: Aggrecan / collagen II immunofluorescence (IHC) of models and OA models with coatings or media modification; assay type: cell-based, human
Method: (§1) To improve the overall quality of the model and encourage aggrecan deposition a range of separate coatings were applied to the 3D scaffold. The applied coatings were selected from human collagen type II, human hyaluronan and human aggrecan to empty 3D scaffolds. Specifically, COL-II was solubilised to 1 mg/mL in 0.5M acetic acid. Stock was diluted 1:500 in PBS and 10 uL layered onto each scaffold. Scaffolds were left to air dry overnight at 2-8 degrees. The next day scaffolds there gently washed in PBS and were ready for use. Hyaluronan was reconstituted into a 1% w/v stock in sterile water. 10 uL was added to each scaffold and left to polymerise at 37 degrees for 1 hour. Following this incubation scaffolds were ready to use. Aggrecan was reconstituted in PBS to create a 100ug/mL stock solution. This stock was used neat, with 10 uL added to each scaffold. Scaffolds were incubated at 37 degrees for several hours prior to use.
(§2) An independent modification was also made to the chondrogenic media. This involved the addition of the HAPLN1 link protein (SEQ ID NO: 1). Specifically, HAPLN1 stock solution was added to chondrogenic media at a working concentration of 100 ng/mL. The resulting medium composition (complete) is outlined in Table 1. L-Ascorbic acid-2-phosphate and HAPLN1 link protein have limited shelf life at 4° C. and so are added to aliquots of incomplete CDM (all components of Table 1 with the exception of L-Ascorbic acid-2-phosphate and HAPLN1 link protein) to create complete CDM on day 7. Preparation of HAPLN1 link protein (Cat #2608-HP RnD sytems) is as follows: • Unit concentration: 25 μg • Solvent: PBS • Reconstitution volume: 250 μl • Stock concentration: 100 μg/mL • Working concentration: 100 ng/mL • Use: 1:1000 dilution for working concentration. E.g. 50 μL of stock into 50 mL of media. • HAPLN1 is reportedly stable for 1 month at 4° C.
(§3) The resulting models were stimulated with cytokines using previously established protocols to create OA models. Following cytokine stimulation, the resulting OA models were harvested and analysed for q-PCR, and immunofluorescent (IF). The supernatant was also harvested and analysed using ELISAs and FRET assays. All analyses were conducted in triplicate.

Y201 OA models = assay: q-PCR of OA models with coated scaffolds or HAPLN1 modified chondrogenic media; assay type: cell-based, human; conditions: OA models (cytokine stimulated); for fold change of MMP13 gene expression: scaffold coating or media supplement
Method: as §1, §2, §3

[2] = system: Y201 models and OA models; assay: ELISA of MMP13 and ADAMTS4 in supernatant of modified models and OA models; assay type: cell-based, human; conditions: OA models vs models; for MMP13 concentration in supernatant (ELISA): coating or supplement
Method: as §1, §2, §3

[3] = at 4° C.; cited from earlier work
[4] = models not stimulated with cytokines
[5] = OA models (cytokine stimulated)

| Molecule | aggrecan staining [1, 4] | ADAMTS5 gene expression (Y201 OA models; coated scaffolds) | MMP13 concentration in supernatant (ELISA) [2] | gene expression profile vs uncoated OA models (Y201 OA models; coated scaffolds) | ADAMTS4 concentration in supernatant (ELISA) ([2]; coating) | aggrecan staining [1, 5] | fold change of MMP13 gene expression (Y201 OA models) [fold] | collagen II production (immunofluorescence) ([1]; MSCs differentiated to chondrocytes in presence of HAPLN1) | stability [3] [month] |
| --- | --- | --- | --- | --- | --- | --- | --- | --- | --- |
| Collagen type II: human collagen type II applied as coating to the 3D scaffold | did not stain positively of aggrecan | increase in expression of ADAMTS5 | decrease in the levels of MMP13 | – | – | – | – | – | – |
| Hyaluronan | did not stain positively of aggrecan | – | decrease in the levels of MMP13 | comparable | increase in ADATS4 levels | – | – | – | – |
| aggrecan: human aggrecan applied as coating to the 3D scaffold | did not stain for aggrecan | – | increased MMP13 levels | – | – | aggrecan was detected | ~19 | – | – |
| B1 | did stain for aggrecan; also recorded: significant levels of ACAN protein | – | increased MMP13 levels | – | – | no staining of aggrecan | ~6 | does not have a negative effect on collagen II production | 1 |
